Consider five molecules from patent US7304168B2, “Photo-caged fluorescent molecules” (Board of Regents, University of Texas System, priority 2003, dated 2007).

Data set [1] has as its system gap junction transfers in coupled human fibroblast cells. Description: Inhibition of junctional coumarin (HCCC2) transfer after localized uncaging. Format: cell-based. The settings on record: human fibroblasts loaded with NPE-HCCC2-AM (1 μM); added prior to the third uncaging. Here is the method: Coupled human fibroblast cells were loaded with NPE-HCCC2-AM (1 μM) for 40 minutes in Hanks Balanced Saline (HBS with 10 mM Hepes, 5.5 mM glucose, pH 7.3), then washed and incubated for another 15 minutes before imaging on an inverted fluorescence microscope. The time course of fluorescent intensities of HCCC2 after it was locally uncaged in the “donor” cells is shown in FIG. 10 (FHCCC2, arbitrary units, 425±5 nm excitation, 460±10 nm emission). A field diaphragm was placed in the excitation light path inside the microscope. The iris of the field diaphragm was reduced to a minimum to limit the area of UV illumination (360±20 nm) to a fraction of a cell during localized uncagings. Digital fluorescence images were taken every 15 seconds. The rates of HCCC2 diffusion are indicated under each episode of transfer. α-Glycyrrhetinic (“αG”) was added to the cells prior to the third uncaging. αG is a classical inhibitor of gap junction transfers (Rozental, et al., 2001).

Data set [2] is described as follows: Two photon uncaging action cross section at 740 nm with Bhc-OAc as reference. Format: physicochemical. The settings on record: for photolysis after 20 minutes of continuous illumination: 345 mW exiting the cuvette; for sensitivity to two photon uncaging relative to 2a: average power 590 mW exiting the cuvette. Here is the method: To calculate δu, 6-bromo-7-hydroxycoumarin-4-ylmethyl acetate (Bhc-OAc) was used as a reference compound (Furuta, 1999; Fedoryak, 2002). The compounds tested included Compound 2a from FIG. 3 and a compound 2a′ having the structure:
Bhc-OAc, Compound 2a, and Compound 2a′ in microcuvettes were illuminated using focused infrared light ([…]) from a femtosecond-pulsed and mode locked Ti-sapphire laser. The two photon uncaging action cross section was determined using the equation (Furuta, 1999):
[formula] • where Np is the number of product molecules formed per unit time, <I0^2(t)> is the mean squared light intensity, S(r) is a unitless spatial distribution function, and the integral is over the volume of the microcuvet, and Cs is the substrate concentration. If caged compounds are photolyzed under the identical setting with the same two photon laser power, then the term <I0^2(t)>∫S^2(r)dV should be about the same for different cages. Thus, δu^a of cage “a” can be determined by comparing its rate of product formation (Np^a) with that of reference cage “b” with known δu^b according to the equation: […]
The formation of coumarins after two photon photolysis of Compound 2a and […] was quantified similarly as in the one photon uncaging experiments by measuring the fluorescence enhancement. The photolysis of Bhc-OAc was quantified by HPLC analysis as described (Furuta, 1999; Fedoryak, 2002).
Two photon photolysis was carried out using a procedure similar to the one first described by Furuta et al (Furuta, 1999). Samples in 100 mM Mops buffer (pH 7.3) were transferred to a microcuvette (Hellma 105.251-QS). The filling volume of the cuvette was […]. The laser beam from a fs-pulsed and mode-locked Ti-Sapphire laser (Mira 900-F pumped by a Verdi, Coherent, Santa Clara, Calif.) was focused into the center of the cuvette with a focusing lens (01 LPX 029/077, focal length 25 mm, Melles-Griot, Carlsbad, Calif.). After irradiation with 740 nm light, samples were collected and the formation of the products was quantified. The formation of coumarins from caged precursors 2a or 2a′ (initial concentration 10 μM) was measured by fluorescence spectroscopy. The photolysis of Bhc-OAc (initial concentration 100 μM) was followed by HPLC. Two-photon uncaging cross sections (δu) were calculated from equation (2) and the reported δu of 0.72 GM for Bhc-OAc at 345 mW laser power exiting the cuvette (Fedoryak, 2002).

The conditions of data set [3]: 740 nm, 345 mW laser power exiting the cuvette; cited from earlier work.
A further data set relates to human fibroblasts. The settings on record: human fibroblasts loaded with Fluo-3/AM.
The conditions of data set [4]: at 730 nm; cited from earlier work.

From the text for human fibroblasts: Human fibroblasts were loaded with the calcium indicator Fluo-3/AM (Molecular Probes), and a caged and cell permeable coumarin derivative (compound 8, FIG. 6). […] Optical filters were used (coumarin excitation, 440AF21 (Omega Optical); Fluo-3 excitation, 490/20; UV uncaging 330WB80; dichroic, 61010bs; emission filter, 84101 special; all of Chroma Technology unless stated otherwise).
Fluo-3 measures cell calcium concentrations.

`CC1(C)[C@@H](O)CC[C@]2(C)[C@H]3C(=O)C=C4[C@H]5C[C@@](C)(C(=O)O)CC[C@]5(C)CC[C@@]4(C)[C@]3(C)CC[C@@H]12` [αG, α-glycyrrhetinic acid]: in data set [1], the “inhibition of coumarin transfer through gap junctions” value is on record as “susceptible to inhibition by αG”. Turning to `CC(=O)OCc1cc(=O)oc2cc(O)c(Br)cc12` [Bhc-OAc, 6-bromo-7-hydroxycoumarin-4-ylmethyl acetate], in data set [2], the “photolysis after 20 minutes of continuous illumination” value amounted to 10.6% and the “sensitivity to two photon uncaging relative to 2a” value is listed as “about two times more sensitive to two photon uncaging than 2a”. Moreover, the “reported δu, two photon uncaging cross section” value in data set [3] was 0.72 GM. As for `NCCc1c[nH]cn1` [histamine], the “intracellular calcium (Fluo-3 channel)” value with human fibroblasts was “induced intracellular calcium increase”. Turning to `COc1ccc([N+](=O)[O-])c2c1CCN2C(=O)CC[C@H](N)C(=O)O` [MNI caged glutamate], the “δu, two photon uncaging cross section” value in data set [4] was 0.06 GM. Take `COC(=O)CC[C@@H](NC(=O)c1cc2ccc(OC(C)c3ccccc3[N+](=O)[O-])cc2oc1=O)C(=O)OC` (stereo partly drawn) [Compound 2a′]: in data set [2], the “photolysis after 20 minutes of continuous illumination” value was 10% and the “sensitivity to two photon uncaging relative to 2a” value is “about two times more sensitive to two photon uncaging than 2a”. Further, in data set [2] (estimated against Bhc-OAc (0.72 GM)), the “δu, two photon uncaging action cross section” value is on record as 0.68 GM.
